# In ChEMBL document CHEMBL1201862, “PubChem BioAssay data set” (2004):
# The source made the active and inactive calls.
# Experiments:
# [1] = Trypanosoma cruzi growth suppression in host cells – NIH3T3 host cells, beta-gal luminescence, confirmation (AID 2044); format: functional, cell-based;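 also: intracellular parasites grown in NIH/3T3 mouse fibroblasts as host cells; luminescent beta-galactosidase reporter signal from transgenic T. cruzi replicating inside host cells; inhibitors lower the luminescence signal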
# [2] = NIH3T3 cell viability loss – ATP luminescence, mouse fibroblasts, counter-screen, dose response (AID 2010); format: functional, cell-based;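 also: cells exposed to compound for about 90 hours before reading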
# CAAX prenyl protease 2 [3] = target: T1, CAAX prenyl protease 2 (Saccharomyces cerevisiae S288c, UniProt Q03530); format: biochemical
# T1 sequence (Q03530 whole entry): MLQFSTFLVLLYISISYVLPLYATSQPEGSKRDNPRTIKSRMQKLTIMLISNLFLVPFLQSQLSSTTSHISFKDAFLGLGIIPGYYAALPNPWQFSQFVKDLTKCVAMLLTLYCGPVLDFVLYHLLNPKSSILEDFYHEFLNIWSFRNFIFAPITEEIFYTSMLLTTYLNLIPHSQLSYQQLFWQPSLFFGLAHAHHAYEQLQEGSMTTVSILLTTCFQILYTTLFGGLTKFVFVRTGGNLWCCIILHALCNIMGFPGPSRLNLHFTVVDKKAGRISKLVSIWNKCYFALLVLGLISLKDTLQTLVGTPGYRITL
# INS1 = assay: INS-1E survival protection against cytokine death – cell-based, luminescence, retest, dose response (AID 449756); format: functional; settings: Rattus norvegicus;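 also: cell death triggered by IL-1 beta plus TNF-alpha plus IFN-gamma mixture; protective hits raise ATP signal compared with cytokine alone wells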
# CAAX prenyl protease 2 [4] = target: T2, CAAX prenyl protease 2 (Homo sapiens, UniProt Q9Y256); assay: inhibition of Ras-converting CAAX protease Rce1 – biochemical, yeast membranes, quenched-peptide fluorescence, cherry-pick, dose response (AID 588849)
# T2 sequence (Q9Y256 whole entry): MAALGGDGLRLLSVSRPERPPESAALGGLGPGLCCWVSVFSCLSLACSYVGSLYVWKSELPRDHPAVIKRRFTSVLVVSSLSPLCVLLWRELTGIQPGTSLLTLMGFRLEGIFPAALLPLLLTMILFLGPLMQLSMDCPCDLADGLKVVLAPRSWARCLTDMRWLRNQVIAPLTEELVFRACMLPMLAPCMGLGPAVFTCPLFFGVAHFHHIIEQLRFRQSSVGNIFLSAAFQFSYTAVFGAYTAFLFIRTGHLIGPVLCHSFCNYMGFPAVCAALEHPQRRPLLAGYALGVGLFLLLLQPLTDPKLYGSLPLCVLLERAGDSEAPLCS
# [5] = reduction of Shn3 3'UTR-driven luciferase in osteoblasts – cell-based, Clone20 osteoblasts, firefly luciferase, cherry-picked, dose response (AID 624132); format: functional;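 also: firefly luciferase luminescence from reporter carrying the Shn3 3'UTR in osteoblasts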
# [6] = loss of viability in HepG2 cells – cell-based, CellTiter-Glo, cherry-picked, cytotoxicity control for Shn3 inhibitor project, dose response (AID 624134); format: functional
# [7] = non-specific 3'UTR reporter inhibition in Clone20-Shn3RL – cell-based, Renilla luciferase, cherry-picked, counter-screen for Shn3 inhibitor project, dose response (AID 624133); format: functional
# [8] = target: T3, DNA repair protein RAD52 homolog (Homo sapiens, UniProt P43351); format: functional, biochemical
# T3 sequence (P43351 whole entry): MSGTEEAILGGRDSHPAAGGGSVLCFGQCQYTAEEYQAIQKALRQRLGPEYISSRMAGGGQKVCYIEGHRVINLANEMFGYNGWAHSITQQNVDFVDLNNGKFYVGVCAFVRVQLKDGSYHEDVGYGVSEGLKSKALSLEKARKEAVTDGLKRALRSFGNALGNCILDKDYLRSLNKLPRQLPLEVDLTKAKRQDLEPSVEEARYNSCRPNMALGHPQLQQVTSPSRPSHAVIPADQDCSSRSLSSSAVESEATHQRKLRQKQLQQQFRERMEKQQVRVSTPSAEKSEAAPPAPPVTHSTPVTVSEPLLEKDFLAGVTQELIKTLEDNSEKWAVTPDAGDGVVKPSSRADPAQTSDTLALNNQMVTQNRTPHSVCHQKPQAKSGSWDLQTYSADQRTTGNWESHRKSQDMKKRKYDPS
# Paired box protein Pax-8 = Paired box protein Pax-8 (Homo sapiens, UniProt Q06710); assay: PAX8 transcriptional activity inhibition in RMG-I – RMG-I cells, luciferase, cherry-pick, dose response (AID 687027); format: functional, cell-based;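 also: luciferase reporter driven by Pax8 target thyroperoxidase promoter measured by SteadyGlo luminescence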
# [9] = reduced cellular PGC1a acetyl-lysine signal – cell-based, cherry-picked samples, dose response (AID 720514); format: functional;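 also: potency may reflect raised or lowered acetylation signal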
# [10] = A549 cell cytotoxicity, dose response, cytotoxicity control, plate reader, cherry-pick, antagonist series (AID 743412); format: functional, cell-based
# [11] = toxicity toward HepG2 liver cells – cell-based, plate reader, cherry-pick, antagonist series, cytotoxicity control, dose response (AID 743416); format: functional
# [12] = blockers of bursicon-stimulated LGR2 cAMP reporter – cell-based, HEK293, CRE-luciferase reporter, cherry pick, set 2, dose response (AID 743343); format: functional;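 also: transfected cells were stimulated with diluted bursicon conditioned medium after compound addition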
# [13] = blockade of melanocortin 4 receptor signaling – cell-based, plate reader, cherry pick, counter-screen for LGR2 antagonist project, dose response (AID 743444); format: functional;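 also: transfected HEK 293 cells stimulated with alpha-MSH peptide; potency of inhibitors of the alpha-MSH evoked signal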
# [14] = viability loss in HEK293 cells – cell-based, plate reader, cherry-picked samples, cytotoxicity control, dose response (AID 743446); format: functional
# [15] = target: Heat shock protein HSP 90-alpha (Homo sapiens, UniProt P07900); format: functional, organism-based
# [16] = Fluorescence-based cell-based high throughput dose response assay for inhibitors of the interaction of nucleotide-binding oligomerization domain containing 2 (NOD2) and the receptor-interacting serine-threonine kinase 2 (RIPK2).; format: functional; settings: Homo sapiens
# [17] = target: T4, Epstein-Barr nuclear antigen 1 (Epstein-Barr virus (strain B95-8) (HHV-4) (Human herpesvirus 4), UniProt P03211); assay: inhibition of EBV nuclear antigen 1 DNA binding – biochemical, fluorescence polarization, 1536-well, dose response (AID 2381); set-up: species or system human gammaherpesvirus 4;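 also: fluorescence polarization of a Cy5 DNA probe bound by EBNA-1 protein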
# T4 sequence (P03211 whole entry): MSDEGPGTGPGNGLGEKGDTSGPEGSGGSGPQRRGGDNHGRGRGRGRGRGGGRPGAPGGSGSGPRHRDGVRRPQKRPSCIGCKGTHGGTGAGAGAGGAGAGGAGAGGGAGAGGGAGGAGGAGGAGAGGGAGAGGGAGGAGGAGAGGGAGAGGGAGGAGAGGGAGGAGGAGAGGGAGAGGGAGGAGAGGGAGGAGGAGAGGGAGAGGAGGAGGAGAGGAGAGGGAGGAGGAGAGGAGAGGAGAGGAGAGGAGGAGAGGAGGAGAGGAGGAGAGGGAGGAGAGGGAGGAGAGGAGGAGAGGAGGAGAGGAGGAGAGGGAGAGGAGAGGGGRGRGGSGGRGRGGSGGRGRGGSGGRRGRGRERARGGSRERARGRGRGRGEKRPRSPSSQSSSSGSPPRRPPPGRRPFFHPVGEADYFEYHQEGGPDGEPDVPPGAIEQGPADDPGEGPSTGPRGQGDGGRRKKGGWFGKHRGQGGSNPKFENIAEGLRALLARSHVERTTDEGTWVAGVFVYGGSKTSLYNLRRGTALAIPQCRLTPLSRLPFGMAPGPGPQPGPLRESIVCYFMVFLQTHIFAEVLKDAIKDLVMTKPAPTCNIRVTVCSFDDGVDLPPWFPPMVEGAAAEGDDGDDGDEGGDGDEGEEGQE
# [18] = target: T5, Lytic switch protein BZLF1 (Epstein-Barr virus (strain B95-8) (HHV-4) (Human herpesvirus 4), UniProt P03206); assay: inhibition of BZLF1 ZTA DNA binding – biochemical, fluorescence polarization, Epstein-Barr virus, 1536-well, counter-screen for EBNA-1 inhibitor project, dose response (AID 2377); set-up: species or system human gammaherpesvirus 4;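 also: fluorescence polarization of Cy5-labelled ZRE DNA probe bound by purified Zta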
# T5 sequence (P03206 whole entry): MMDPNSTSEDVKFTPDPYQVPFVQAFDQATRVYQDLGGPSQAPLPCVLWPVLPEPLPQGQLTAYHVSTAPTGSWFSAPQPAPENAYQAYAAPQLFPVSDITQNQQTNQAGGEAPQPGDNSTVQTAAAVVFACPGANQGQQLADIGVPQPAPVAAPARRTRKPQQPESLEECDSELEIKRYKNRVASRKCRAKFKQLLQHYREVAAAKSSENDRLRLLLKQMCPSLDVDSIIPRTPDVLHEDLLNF
# [19] = target: Voltage-dependent T-type calcium channel subunit alpha-1H (Homo sapiens, UniProt O95180); format: functional;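 also: channel activity triggered by adding a high calcium stimulation buffer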
# [20] = target: Peroxisome proliferator-activated receptor gamma/Nuclear receptor corepressor 2 (Homo sapiens, UniProt P37231+Q9Y618); assay: Counterscreen for NR2E3 inverse agonists: TR-FRET-based biochemical high throughput dose response assay to identify inverse agonists of the interaction between peroxisome proliferator-activated receptor gamma (PPARg) and nuclear receptor co-repressor 2 (NCOR2).; format: functional
# [21] = target: Photoreceptor-specific nuclear receptor (Homo sapiens, UniProt Q9Y5X4); assay: ligands suppressing NR2E3 nuclear receptor activity – biochemical, TR-FRET, dose response (AID 463256); format: functional
# Prothrombin = Prothrombin (Homo sapiens, UniProt P00734); assay: Thrombin 1536 HTS Dose Response Confirmation. [Related pubchem assays: 1046 (Thrombin 1536 HTS; hits were confirmed in this assay)]; format: functional
# [22] = target: FAD-linked sulfhydryl oxidase ALR (Homo sapiens, UniProt P55789); assay: ALR-catalysed DTT oxidation blockers – biochemical, H2O2 detection, luminescence, cherry-pick, dose response (AID 493248)
# [23] = target: T6, Oxysterols receptor LXR-beta (Homo sapiens, UniProt P55055); format: functional, cell-based;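 also: Cell-based luminescence dose-response assay of agonist activity at LXR, run as a confirmatory counterscreen to a daf-12 agonist screen; HEK293 cells with Gal4-LXR fusion and GAL4-driven luciferase reporter; agonist potency from rising luciferase signal of a Gal4-LXR reporter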
# T6 sequence (P55055 whole entry): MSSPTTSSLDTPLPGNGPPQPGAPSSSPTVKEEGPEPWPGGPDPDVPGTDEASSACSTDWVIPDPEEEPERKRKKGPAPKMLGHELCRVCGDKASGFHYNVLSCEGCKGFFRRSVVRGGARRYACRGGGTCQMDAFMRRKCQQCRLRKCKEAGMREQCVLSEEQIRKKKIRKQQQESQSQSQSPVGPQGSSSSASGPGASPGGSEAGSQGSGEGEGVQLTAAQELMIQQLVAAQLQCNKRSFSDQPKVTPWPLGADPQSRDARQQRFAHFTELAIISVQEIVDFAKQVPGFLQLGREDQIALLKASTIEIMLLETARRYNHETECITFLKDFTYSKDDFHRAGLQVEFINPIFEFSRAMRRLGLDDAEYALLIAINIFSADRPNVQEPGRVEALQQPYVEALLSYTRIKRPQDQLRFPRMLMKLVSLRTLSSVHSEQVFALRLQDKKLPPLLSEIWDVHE
# [24] = Luminescence-based counterscreen assay for KLF5 inhibitors: dose response cell-based high throughput screening assay to identify cytotoxic compounds using the IEC-6 intestinal epithelial cell line. [Related pubchem assays: 1700 (Primary screen.), 1834 (Confirmation screen.), 1858 (Summary AID.), 1905 (Counterscreen.)]; format: functional
# HEK293 = assay: EBV LMP1 TES2 canonical NF-kB signalling blockers – cell-based, HEK293, luciferase, cherry-pick, dose response (AID 588343); format: functional; settings: Homo sapiens
# [25] = A2780 cell killing – plate reader, dry powder samples, cytotoxicity control, dose response (AID 743046); format: functional, cell-based
# [26] = P. falciparum Dd2 growth inhibitors, dose response, SYBR Green, cherry-picked samples (AID 1159567); format: functional, cell-based
# [27] = toxicity to human hepatoma HepG2 cells – cell-based, cherry-picked samples, cytotoxicity control, dose response (AID 1159577); format: functional
# Paired box protein Pax-8, sequence (Q06710 whole entry): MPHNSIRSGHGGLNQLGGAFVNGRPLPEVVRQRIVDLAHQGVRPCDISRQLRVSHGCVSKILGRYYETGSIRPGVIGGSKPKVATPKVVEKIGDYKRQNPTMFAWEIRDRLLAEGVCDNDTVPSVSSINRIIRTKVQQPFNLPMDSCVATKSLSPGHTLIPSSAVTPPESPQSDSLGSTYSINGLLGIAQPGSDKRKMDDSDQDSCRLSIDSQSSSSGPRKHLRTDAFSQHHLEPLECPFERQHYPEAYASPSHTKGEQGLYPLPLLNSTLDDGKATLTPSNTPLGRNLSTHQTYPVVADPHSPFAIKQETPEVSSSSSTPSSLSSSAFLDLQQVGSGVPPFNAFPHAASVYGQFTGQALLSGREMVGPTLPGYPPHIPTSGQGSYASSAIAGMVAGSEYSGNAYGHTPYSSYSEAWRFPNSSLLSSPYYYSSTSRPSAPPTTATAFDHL
# Voltage-dependent T-type calcium channel subunit alpha-1H, sequence (O95180 whole entry): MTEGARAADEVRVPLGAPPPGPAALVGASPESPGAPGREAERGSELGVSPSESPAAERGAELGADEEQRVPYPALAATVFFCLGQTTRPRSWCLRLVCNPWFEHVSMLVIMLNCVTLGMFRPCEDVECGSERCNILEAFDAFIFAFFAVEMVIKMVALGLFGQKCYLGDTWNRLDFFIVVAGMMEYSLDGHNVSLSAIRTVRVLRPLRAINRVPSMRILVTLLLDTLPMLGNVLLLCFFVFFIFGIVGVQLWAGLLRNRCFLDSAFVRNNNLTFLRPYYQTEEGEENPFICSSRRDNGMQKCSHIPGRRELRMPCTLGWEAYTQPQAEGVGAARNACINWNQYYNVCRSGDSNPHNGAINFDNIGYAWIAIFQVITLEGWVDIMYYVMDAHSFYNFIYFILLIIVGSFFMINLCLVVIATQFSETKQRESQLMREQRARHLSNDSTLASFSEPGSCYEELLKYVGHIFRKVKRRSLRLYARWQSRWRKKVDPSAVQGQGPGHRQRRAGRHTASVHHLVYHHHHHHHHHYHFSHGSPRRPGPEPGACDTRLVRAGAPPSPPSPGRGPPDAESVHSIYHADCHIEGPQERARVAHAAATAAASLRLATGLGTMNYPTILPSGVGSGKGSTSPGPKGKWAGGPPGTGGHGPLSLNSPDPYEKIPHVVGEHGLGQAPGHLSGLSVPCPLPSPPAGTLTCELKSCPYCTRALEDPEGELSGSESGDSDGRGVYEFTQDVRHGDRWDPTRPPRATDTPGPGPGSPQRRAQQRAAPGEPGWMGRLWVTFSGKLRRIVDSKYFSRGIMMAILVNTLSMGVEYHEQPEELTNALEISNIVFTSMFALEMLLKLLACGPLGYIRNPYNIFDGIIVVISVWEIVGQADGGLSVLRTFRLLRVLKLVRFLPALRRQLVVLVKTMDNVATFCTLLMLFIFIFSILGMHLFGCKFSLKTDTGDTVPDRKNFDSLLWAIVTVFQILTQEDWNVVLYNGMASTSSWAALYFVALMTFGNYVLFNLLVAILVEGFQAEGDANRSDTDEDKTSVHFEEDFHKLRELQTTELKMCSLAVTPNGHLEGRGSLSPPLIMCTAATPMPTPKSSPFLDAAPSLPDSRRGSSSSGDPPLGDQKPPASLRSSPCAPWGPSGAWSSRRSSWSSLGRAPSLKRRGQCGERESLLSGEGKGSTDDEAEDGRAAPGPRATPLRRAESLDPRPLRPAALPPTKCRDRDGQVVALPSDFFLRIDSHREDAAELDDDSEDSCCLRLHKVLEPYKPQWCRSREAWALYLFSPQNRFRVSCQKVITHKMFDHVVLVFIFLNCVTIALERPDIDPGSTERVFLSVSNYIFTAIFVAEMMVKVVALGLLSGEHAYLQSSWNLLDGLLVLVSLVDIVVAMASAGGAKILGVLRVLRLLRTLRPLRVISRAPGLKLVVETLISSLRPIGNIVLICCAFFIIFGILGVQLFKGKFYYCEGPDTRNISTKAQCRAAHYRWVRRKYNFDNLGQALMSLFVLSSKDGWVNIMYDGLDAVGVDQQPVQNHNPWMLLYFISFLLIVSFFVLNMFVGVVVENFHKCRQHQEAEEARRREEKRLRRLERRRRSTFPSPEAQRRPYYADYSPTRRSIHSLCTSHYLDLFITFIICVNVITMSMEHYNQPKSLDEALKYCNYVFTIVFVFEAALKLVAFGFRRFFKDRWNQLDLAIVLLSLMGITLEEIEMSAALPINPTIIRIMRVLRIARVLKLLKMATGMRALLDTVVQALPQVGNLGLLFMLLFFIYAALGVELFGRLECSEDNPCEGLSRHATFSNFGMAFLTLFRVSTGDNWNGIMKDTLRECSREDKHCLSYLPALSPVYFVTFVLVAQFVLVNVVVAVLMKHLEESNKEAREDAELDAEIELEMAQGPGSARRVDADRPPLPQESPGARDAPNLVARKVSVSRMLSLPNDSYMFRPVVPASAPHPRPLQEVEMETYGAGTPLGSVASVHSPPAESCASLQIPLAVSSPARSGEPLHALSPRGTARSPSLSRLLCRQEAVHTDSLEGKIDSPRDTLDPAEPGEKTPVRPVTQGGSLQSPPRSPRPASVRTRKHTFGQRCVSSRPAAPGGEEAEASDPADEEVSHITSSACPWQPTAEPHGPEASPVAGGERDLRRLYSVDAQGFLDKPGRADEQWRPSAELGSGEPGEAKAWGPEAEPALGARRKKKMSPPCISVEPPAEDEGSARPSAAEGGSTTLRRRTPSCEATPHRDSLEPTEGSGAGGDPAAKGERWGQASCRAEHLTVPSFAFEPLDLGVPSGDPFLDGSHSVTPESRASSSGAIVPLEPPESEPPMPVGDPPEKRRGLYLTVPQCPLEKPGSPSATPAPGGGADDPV
# Photoreceptor-specific nuclear receptor, sequence (Q9Y5X4 whole entry): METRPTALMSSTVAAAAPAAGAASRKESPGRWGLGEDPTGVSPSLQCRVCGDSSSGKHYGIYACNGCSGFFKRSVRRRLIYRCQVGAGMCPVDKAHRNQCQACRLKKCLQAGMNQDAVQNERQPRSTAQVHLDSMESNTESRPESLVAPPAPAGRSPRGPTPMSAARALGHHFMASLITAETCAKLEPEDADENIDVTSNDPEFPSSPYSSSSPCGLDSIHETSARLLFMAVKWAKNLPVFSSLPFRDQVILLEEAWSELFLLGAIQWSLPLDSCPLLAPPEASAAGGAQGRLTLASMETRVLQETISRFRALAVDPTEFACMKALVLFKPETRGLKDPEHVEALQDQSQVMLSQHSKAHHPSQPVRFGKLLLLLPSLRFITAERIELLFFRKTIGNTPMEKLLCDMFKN
# FAD-linked sulfhydryl oxidase ALR, sequence (P55789 whole entry, the tested form may be a part): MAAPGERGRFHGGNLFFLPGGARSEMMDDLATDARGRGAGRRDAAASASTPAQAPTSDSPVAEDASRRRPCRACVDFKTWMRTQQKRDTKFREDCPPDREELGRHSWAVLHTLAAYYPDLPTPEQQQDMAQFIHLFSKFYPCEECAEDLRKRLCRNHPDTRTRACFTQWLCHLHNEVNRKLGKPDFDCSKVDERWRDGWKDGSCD
compound,measurement,setting,value
C[n+]1c2n(c3ccccc31)N=C(c1cc(C(C)(C)C)c(O)c(C(C)(C)C)c1)CS2,EC50,[1],0.496 µM (active)
same,EC50,[2],> 60 µM (not active)
same,AC50,CAAX prenyl protease 2 [3],9.21 µM (active)
same,AC50,INS1,0.452 µM (active)
same,AC50,CAAX prenyl protease 2 [4],> 100 µM (inactive)
same,AC50,[5],5.92 µM (active)
same,AC50,[6],13 µM (active)
same,AC50,[7],7.16 µM (active)
same,AC50,[8],13.4 µM (active)
same,AC50,Paired box protein Pax-8,0.906 µM (active)
Cn1nnnc1Sc1ncnc2scc(-c3cccc(S(C)(=O)=O)c3)c12,AC50,Paired box protein Pax-8,2.03 µM (active)
same,AC50,[9],35.3 µM (active)
same,AC50,[10],14.9 µM (active)
same,AC50,[11],17.6 µM (active)
same,AC50,[12],4.13 µM (active)
same,AC50,[13],2.82 µM (active)
same,AC50,[14],25.8 µM (active)
Cc1ccccc1Oc1cc(-n2ncc(Cl)c(Cl)c2=O)ncn1,AC50,[15],3.94 µM (active)
same,AC50,INS1,3.02 µM (active)
same,IC50,[16],0.882 µM (active)
same,AC50,[9],4.25 µM (active)
same,AC50,[10],4.53 µM (active)
same,AC50,[11],1.65 µM (active)
same,AC50,[12],7.89 µM (active)
same,AC50,[13],9.42 µM (active)
same,AC50,[14],4.45 µM (active)
CC1=CC(=C(C#N)C#N)C=C(C)N1CCN1CCN(C(=O)Nc2ccc(Cl)c(Cl)c2)CC1,IC50,[17],16.3 µM (not active)
same,IC50,[18],> 111 µM (not active)
O=C(CSc1nnnn1C1CCCCC1)N1c2ccccc2Sc2ccccc21,EC50,[19],7.42 µM (active)
O=C(Nc1ccc(-c2nc3ncccc3o2)cc1)c1ccc(Br)o1,IC50,[20],3.7 µM (active)
same,IC50,[21],3.5 µM (active)
Cc1ccsc1C(=O)Nc1nccs1,IC50,[20],27.3 µM (not active)
same,IC50,[21],> 39.9 µM (not active)
Cc1sc2ncnc(SCC(=O)NNC(=O)COc3cccc4ccccc34)c2c1C,IC50,[17],2.02 µM (active)
same,IC50,[18],> 111 µM (not active)
Cn1cc(C(=O)c2ccc(Cl)cc2Cl)cc1C(=O)NN=C(N)COc1ccc(F)cc1,IC50,Prothrombin,2.13 µM (active)
same,EC50,[19],2.48 µM (active)
CCc1ccc(-c2nc(CN3CCC(C(=O)NCc4ccc(F)cc4)CC3)c(C)o2)cc1,EC50,[19],4.46 µM (active)
O=C(O)c1cc(-c2ccc3c(c2)OCO3)nc2ccccc12,AC50,[9],31 µM (active)
COc1ccc(-c2cn3c4c(sc3n2)CCCC4)cc1,AC50,[22],0.325 µM (active)
same,EC50,[23],> 67.5 µM (inactive)
same,EC50,cells,> 67.5 µM (inactive)
CCOc1cc(Br)cc(/C=N/NC(=O)c2cccnc2)c1O,IC50,[24],16.8 µM (not active)
same,AC50,HEK293,21.5 µM (active)
Cc1noc(C)c1S(=O)(=O)Nc1ccc2c(c1)C(=O)N([C@@H](C)CO)C[C@H](C)[C@H](CN(C)C(=O)Nc1ccc(C(F)(F)F)cc1)OCCCC[C@H](C)O2,AC50,Paired box protein Pax-8,14.2 µM (active)
same,AC50,[25],4.83 µM (active)
O=[N+]([O-])c1cccc(/C=N/Nc2nc(NCc3ccccc3)nc(N3CCOCC3)n2)c1,IC50,[17],3.45 µM (active)
same,IC50,[18],> 111 µM (not active)
COc1ccccc1NC(=O)N1CCCCN2[C@@H](CO)[C@H](c3ccc(C#Cc4ccccc4)cc3)[C@@H]2C1,AC50,[26],< 0.3 µM (active)
same,AC50,[27],9.96 µM (active)
